Columns and labels:
Type in all cases: cell-based
[1] = target: T1, human EDG8 (S1PR5) receptor (Homo sapiens, UniProt Q9H228); experiment: Aequorin assay, agonist potency, CHO-A21-EDG8#12 cells; settings: agonist mode, aequorin luminescence; read-out: S1P5 EC50 range #
T1 construct: carries the transgenes human EDG8 (S1PR5) receptor (Acession number NP_110387.1); expressed in transfected cells; host or cells: CHO-A21-EDG8#12 (CHO clone co-expressing mitochondrial aequorin and chimaeric Gaqi5)
Description: (§1) Agonistic activity was measured as described below.
(§2) Cell clone CHO-A21-Edg1#17 carries the transgenes human EDG1 (S1PR1) receptor (Accession number NP_001391.2), mitochondrially targeted Aequorin (active part corresponds to accession number 1SL8_A) and chimaeric Gaqi5=Gaq modified with the 5 C-terminal amino-acids replaced with those of the Gai protein (DCGLF). CHO-A2-S1P3 Mix is a cell pool ectopically expressing human EDG3 (S1PR3) receptor (Accession number NP_005217.2) mitochondrially targeted Aequorin (active part has a sequence similar to accession number AY601106.1) and GNA16 (Accession number NP_002059.3). Cell clone CHO-A21-EDG8#12 carries the transgenes human EDG8 (S1PR5) receptor (Acession number NP_110387.1), mitochondrially expressed Aequorin (active part corresponds to accession number 1SL8_A) and chimaeric Gaqi5 (Gaq modified to present the 5 last amino-acids of the Gai protein “DCGLF”; see above). Cells are grown to mid-log phase in culture medium (HAM's F12, 10% FBS, 100 IU/mL penicillin, 100 μg/mL streptomycin, 250 μg/mL Zeocin, 400 μg/mL G418). 18 hours prior to frozen cells preparation, the medium is changed to remove the antibiotics.
(§3) 18 hours prior to the test, vials of frozen cells are quickly thawed in a 37° C. water bath, cells are recovered by centrifugation and resuspended in assay buffer (DMEM/HAM's F12 with HEPES, without phenol red+0.1% fatty acid-free BSA). Cells are gently agitated in suspension overnight at RT in presence of 5 μM of Coelenterazine h (Molecular Probes). On the day of the test, cells are diluted to their final working concentrations in assay buffer and agitated in suspension for 1 h at RT. Cells are then placed in the luminescence reader (Hamamatsu Functional Drug Screening System 6000, FDSS6000). During cells incubation, compounds are prepared in 100% DMSO, and subsequently diluted in assay buffer. Compounds are then dispensed in the assay plate (black, clear-bottom, 384-well plate). After binding of agonists to the human S1P receptor the intracellular calcium concentration increases and binding of calcium to the Aequorin/Coelenterazine complex leads to an oxidation reaction of coelenterazine, which results in the production of Aequorin, coelenteramide, CO2 and light (Dmax 469 nm). The luminescent response is dependent on the agonist concentration. For agonist testing, 30 μL of cell suspension are injected on 30 μL of test compound or reference agonist in the assay plate. The resulting emission of light is recorded for 90 seconds using the FDSS6000. Dose response curves with the reference compounds are performed before testing the compounds. S1P is the reference agonist and JTE-013 the reference antagonist for S1P2.
(§4) Luminescence data are integrated over the reading interval for agonist and antagonist modes. To standardize the emission of recorded light (determination of the “100% signal”) across plates and across different experiments, some of the wells contain 100 μM digitonin or a saturating concentration of ATP (20 μM). Plates also contain the reference agonist at a concentration equivalent to the EC80 obtained during the test validation and the EC100. Dose-response data from test compounds were analyzed with XLfit (IDBS) software using nonlinear regression applied to a sigmoidal dose-response model and the following equation: […]

[2] = target: T2, human EDG1 (S1PR1) receptor (Homo sapiens, UniProt P21453); experiment: Aequorin assay, agonist potency, CHO-A21-Edg1#17 cells; settings: agonist mode, aequorin luminescence; read-out: S1P1 EC50
T2 construct: expressed in transfected cells; host or cells: CHO-A21-Edg1#17 (CHO clone co-expressing mitochondrial aequorin and chimaeric Gaqi5)
T2 sequence (P21453 whole entry): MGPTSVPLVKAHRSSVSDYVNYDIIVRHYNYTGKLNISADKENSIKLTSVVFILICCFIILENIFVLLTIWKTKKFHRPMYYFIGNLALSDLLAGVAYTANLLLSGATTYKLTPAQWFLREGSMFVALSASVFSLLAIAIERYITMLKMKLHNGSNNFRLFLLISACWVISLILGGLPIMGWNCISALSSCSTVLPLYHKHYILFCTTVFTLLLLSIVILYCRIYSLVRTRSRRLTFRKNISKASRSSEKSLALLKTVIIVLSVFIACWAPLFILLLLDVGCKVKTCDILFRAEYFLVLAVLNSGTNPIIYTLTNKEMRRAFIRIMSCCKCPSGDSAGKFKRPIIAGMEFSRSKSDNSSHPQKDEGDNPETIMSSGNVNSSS
Description: as §1, §2, §3, §4

S1P4 = target: T3, S1P4 (Homo sapiens, UniProt O95977); experiment: Aequorin assay, agonist potency, S1P4; settings: agonist mode, aequorin luminescence
T3 sequence (O95977 1-384): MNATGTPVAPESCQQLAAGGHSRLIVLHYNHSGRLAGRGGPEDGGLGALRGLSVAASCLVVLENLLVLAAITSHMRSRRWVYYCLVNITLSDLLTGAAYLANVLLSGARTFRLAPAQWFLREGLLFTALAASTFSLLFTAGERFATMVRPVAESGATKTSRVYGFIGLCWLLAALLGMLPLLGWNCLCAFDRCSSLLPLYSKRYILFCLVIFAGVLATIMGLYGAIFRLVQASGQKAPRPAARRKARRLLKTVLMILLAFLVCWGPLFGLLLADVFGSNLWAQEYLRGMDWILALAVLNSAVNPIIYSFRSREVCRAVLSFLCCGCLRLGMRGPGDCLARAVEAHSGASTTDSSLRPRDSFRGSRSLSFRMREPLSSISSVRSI
Description: as §1, §3, §4

T1 sequence (Q9H228 whole entry): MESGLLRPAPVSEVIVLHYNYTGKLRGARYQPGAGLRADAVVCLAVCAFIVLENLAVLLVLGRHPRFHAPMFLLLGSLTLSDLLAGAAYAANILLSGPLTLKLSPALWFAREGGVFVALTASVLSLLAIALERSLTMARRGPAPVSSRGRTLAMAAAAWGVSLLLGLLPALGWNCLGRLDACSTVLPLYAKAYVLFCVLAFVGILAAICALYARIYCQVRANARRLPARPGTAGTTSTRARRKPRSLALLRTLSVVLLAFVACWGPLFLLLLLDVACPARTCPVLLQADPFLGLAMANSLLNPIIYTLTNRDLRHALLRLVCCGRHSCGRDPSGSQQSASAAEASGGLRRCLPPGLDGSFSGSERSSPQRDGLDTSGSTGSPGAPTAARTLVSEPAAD

| SMILES | EC50 [1] [nM] | EC50 [2] [nM] | EC50 (S1P4) [nM] |
| --- | --- | --- | --- |
| O=C(O)C1(CN2CC3(Cc4ccc(OCc5c(F)cccc5C(F)(F)F)cc4C3)C2)CC1 [Example 49, 1-((5′-((2-fluoro-6-(trifluoromethyl)benzyl)oxy)-1′,3′-dihydrospiro[azetidine-3,2′-inden]-1-yl)methyl)cyclopropanecarboxylic acid] | ≤ 10 | > 1000 | < 1000 |
| CC(C)Oc1ccc(C#Cc2ccc3c(c2)CC2(C3)CN(CC(=O)O)C2)cn1 [Example 75, 2-(5′-((6-isopropoxypyridin-3-yl)ethynyl)-1′,3′-dihydrospiro[azetidine-3,2′-inden]-1-yl)acetic acid] | ≤ 10 | < 1000 | > 1000 |
| O=C(O)CN1CC2(Cc3ccc(C#CC4CCCCC4)cc3O2)C1 [Example 150, 2-(6′-(cyclohexylethynyl)-3′H-spiro[azetidine-3,2′-benzofuran]-1-yl)acetic acid] | ≤ 10 | > 1000 | < 1000 |
| O=C(O)C1(CN2CC3(Cc4ccc(OCc5cccc6c5CCC6)cc4C3)C2)CC1 [Example 125, 1-((5′-((2,3-dihydro-1H-inden-4-yl)methoxy)-1′,3′-dihydrospiro[azetidine-3,2′-inden]-1-yl)methyl)cyclopropanecarboxylic acid] | 10 to 100 | > 1000 | < 1000 |
| O=C(O)C1(CN2CC3(Cc4ccc(OCCc5cccc(F)c5)cc4C3)C2)CC1 [Example 148, 1-((5′-(3-fluorophenethoxy)-1′,3′-dihydrospiro[azetidine-3,2′-inden]-1-yl)methyl)cyclopropanecarboxylic acid] | 1000 to 10000 | > 1000 | < 1000 |
| O=C(O)C1(CN2CC3(Cc4ccc(OC5CCc6cccc(Cl)c65)cc4C3)C2)CC1 (stereo not drawn) [Example 129, 1-((5′-((7-chloro-2,3-dihydro-1H-inden-1-yl)oxy)-1′,3′-dihydrospiro[azetidine-3,2′-inden]-1-yl)methyl)cyclopropanecarboxylic acid] | ≤ 10 | > 1000 | < 1000 |
| O=C(O)CN1CC2(Cc3ccc(C#Cc4ccccc4)cc3C2)C1 [Example 82, 2-(5′-(phenylethynyl)-1′,3′-dihydrospiro[azetidine-3,2′-inden]-1-yl)acetic acid] | 10 to 100 | > 1000 | < 1000 |
| O=C(O)C1CC(N2CC3(Cc4ccc(OCC5CCCOC5)cc4C3)C2)C1 (stereo not drawn) [Example 5, 3-(5′-((tetrahydro-2H-pyran-3-yl)methoxy)-1′,3′-dihydrospiro[azetidine-3,2′-inden]-1-yl)cyclobutanecarboxylic acid] | 1000 to 10000 | > 1000 | > 1000 |
| O=C(O)CN1CC2(Cc3ccc(C#Cc4ccccc4)cc3O2)C1 [Example 151, 2-(6′-(phenylethynyl)-3′H-spiro[azetidine-3,2′-benzofuran]-1-yl)acetic acid] | ≤ 10 | > 1000 | < 1000 |
| CCc1cccc(F)c1COc1ccc2c(c1)CC1(C2)CN(CC(=O)O)C1 [Example 21, 2-(5′-((2-ethyl-6-fluorobenzyl)oxy)-1′,3′-dihydrospiro[azetidine-3,2′-inden]-1-yl)acetic acid] | ≤ 10 | > 1000 | < 1000 |
| Cc1cccc(F)c1COc1ccc2c(c1)CC1(C2)CN(CC(=O)O)C1 [Example 17, 2,2,2-trifluoroacetic acid compound with 2-(5′-((2-fluoro-6-methylbenzyl)oxy)-1′,3′-dihydrospiro[azetidine-3,2′-inden]-1-yl)acetic acid (1:1)] | ≤ 10 | > 1000 | < 1000 |
| COc1ccc(COc2ccc3c(c2)CC2(C3)CN(C3CC(C(=O)O)C3)C2)c(C)n1 (stereo not drawn) [Example 88, 3-(5′-((6-methoxy-2-methylpyridin-3-yl)methoxy)-1′,3′-dihydrospiro[azetidine-3,2′-inden]-1-yl)cyclobutanecarboxylic acid] | 1000 to 10000 | > 1000 | < 1000 |
| O=C(O)CN1CC2(Cc3ccc(C#Cc4ccccc4Cl)cc3O2)C1 [Example 153, 2-(6′-((2-chlorophenyl)ethynyl)-3′H-spiro[azetidine-3,2′-benzofuran]-1-yl)acetic acid] | ≤ 10 | > 1000 | < 1000 |
| O=C(O)CN1CC2(Cc3ccc(OCc4c(F)cccc4F)cc3C2)C1 [Example 13, 2,2,2-trifluoroacetic acid compound with 2-(5′-((2,6-difluorobenzyl)oxy)-1′,3′-dihydrospiro[azetidine-3,2′-inden]-1-yl)acetic acid (1:1)] | 10 to 100 | > 1000 | < 1000 |
| O=C(O)[C@H]1C[C@@H](N2CC3(Cc4ccc(OCc5cc(Cl)ccc5Cl)cc4C3)C2)C1 [Example 90, (1s,3s)-3-(5′-((2,5-dichlorobenzyl)oxy)-1′,3′-dihydrospiro[azetidine-3,2′-inden]-1-yl)cyclobutanecarboxylic acid] | 100 to 1000 | > 1000 | < 1000 |
| CCc1cccc(Cl)c1COc1ccc2c(c1)OC1(C2)CN(CC2(C(=O)O)CC2)C1 [Example 156, 1-((6′-((2-chloro-6-ethylbenzyl)oxy)-3′H-spiro[azetidine-3,2′-benzofuran]-1-yl)methyl)cyclopropanecarboxylic acid] | ≤ 10 | > 1000 | < 1000 |
| CCOc1ccc(C#Cc2ccc3c(c2)CC2(C3)CN(CC(=O)O)C2)cc1 [Example 77, 2-(5′-((4-ethoxyphenyl)ethynyl)-1′,3′-dihydrospiro[azetidine-3,2′-inden]-1-yl)acetic acid] | ≤ 10 | < 1000 | < 1000 |
| O=C(O)C1CC(N2CC3(Cc4ccc(OCc5cc(Cl)ccc5Cl)cc4C3)C2)C1 (stereo not drawn) [Example 93, 3-(5′-((2,5-dichlorobenzyl)oxy)-1′,3′-dihydrospiro[azetidine-3,2′-inden]-1-yl)cyclobutanecarboxylic acid] | 10 to 100 | > 1000 | < 1000 |
| CC(C)Oc1ccc(C#Cc2ccc3c(c2)CC2(C3)CN(C3CC(C(=O)O)C3)C2)cc1 (stereo not drawn) [Example 97, 3-(5′-((4-isopropoxyphenyl)ethynyl)-1′,3′-dihydrospiro[azetidine-3,2′-inden]-1-yl)cyclobutanecarboxylic acid] | ≤ 10 | < 1000 | > 1000 |
| CC(C)Oc1ccc(C#Cc2ccc3c(c2)CC2(C3)CN(C3CC(C(=O)O)C3)C2)cn1 (stereo not drawn) [Example 96, 3-(5′-((6-isopropoxypyridin-3-yl)ethynyl)-1′,3′-dihydrospiro[azetidine-3,2′-inden]-1-yl)cyclobutanecarboxylic acid] | 10 to 100 | < 1000 | > 1000 |
| O=C(O)CN1CC2(Cc3ccc(OCc4ccc(Br)cc4Cl)cc3C2)C1 [Example 22, 2-(5′-((4-bromo-2-chlorobenzyl)oxy)-1′,3′-dihydrospiro[azetidine-3,2′-inden]-1-yl)acetic acid] | 10 to 100 | > 1000 | < 1000 |

Reference: patent US20200055817A1 (AbbVie Deutschland GmbH & Co. KG, priority 2016, published 2020)
